IC50 data for four molecules are collected here from PubChem BioAssay AID2820 (Sanford-Burnham Center for Chemical Genomics, 2010).

The target of the experiment is G-protein coupled receptor 55 (Homo sapiens) (UniProt Q9Y2T6). As to the kind of experiment: blockade of LPI-induced GPR55 arrestin translocation – imaging, U2OS, beta-arrestin-GFP, LPI agonist, set 2, SAR follow-up (AID 2820). Conditions: LPI antagonism.
Sequence of G-protein coupled receptor 55 (Homo sapiens) (Q9Y2T6 whole entry, looked up): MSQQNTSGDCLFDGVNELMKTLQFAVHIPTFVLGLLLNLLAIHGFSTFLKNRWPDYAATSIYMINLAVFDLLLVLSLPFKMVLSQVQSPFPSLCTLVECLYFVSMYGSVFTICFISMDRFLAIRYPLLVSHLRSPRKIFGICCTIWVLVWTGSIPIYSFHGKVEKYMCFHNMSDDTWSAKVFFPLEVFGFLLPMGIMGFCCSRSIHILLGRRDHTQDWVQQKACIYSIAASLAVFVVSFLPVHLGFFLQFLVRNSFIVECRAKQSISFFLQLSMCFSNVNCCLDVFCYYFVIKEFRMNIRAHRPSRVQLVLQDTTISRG
A word on the IC50: it is the concentration at which inhibition is half-maximal. Turning to `Cc1cc(OCC(=O)Nc2ccc(S(=O)(=O)NC3=NCCCCC3)cc2)c(C(C)C)cc1Cl`, the IC50 was 1090 nM. To `O=C(c1ccco1)N1CCN(c2nc(C3CC3)nc3sc4c(c23)CCCC4)CC1` belongs 865 nM; to `Cc1nc(N2CCN(C(=O)c3ccco3)CC2)c2c3c(sc2n1)CCCC3`, 702 nM.

As to `Cc1ccc(C2(C(=O)N3CCC(n4nc(-c5ccccc5)oc4=O)CC3)CC2)cc1`, the IC50 was 1080 nM.
